# Experimental data from article PMC6694038, “Pharmacogenomic–pharmacokinetic study of selective estrogen-receptor modulators with intra-patient dose escalation in breast cancer” (Breast Cancer (Tokyo, Japan), 2019).
# Legend:
# [1] = weighting of plasma concentration; cited from earlier work
# [2] = Plasma concentrations of TAM, TOR and their metabolites by LC–MS/MS (screening study)
# [3] = Hot flush grade (CTCAE v3.0) in the screening study; format: in vivo, breast cancer patients
# From the text: We obtained data on compliance and the grade of hot flush as defined by the Common Terminology Criteria for Adverse Events v3.0.
# [4] = patients on TAM 20 mg a day, N=182
# [5] = 14 patients of the dose-escalation study
Compound,"Plasma concentration, max ([2]; patients on TOR 40 mg, N=61)","Plasma concentration, mean ([2]; patients on TOR 40 mg, N=61)","Plasma concentration, median ([2]; patients on TOR 40 mg, N=61)","Plasma concentration, min ([2]; patients on TOR 40 mg, N=61)","Plasma concentration, max ([2]; patients on TOR 120 mg, N=27)","Plasma concentration, mean ([2]; patients on TOR 120 mg, N=27)","Plasma concentration, median ([2]; patients on TOR 120 mg, N=27)","Plasma concentration, min ([2]; patients on TOR 120 mg, N=27)","Plasma concentration, max [2, 4]","Plasma concentration, mean [2, 4]","Plasma concentration, median [2, 4]","Plasma concentration, min [2, 4]",In vitro activity factor in the total activity of TOR (TOR = 1.0) [1],In vitro activity factor in the total activity of TAM (TAM = 1.0) [1],further results
CNCCOc1ccc(/C(=C(/CCCl)c2ccccc2)c2ccc(O)cc2)cc1 [4OH-NDM-TOR],0.0688 µg/mL,0.0154 µg/mL,0.0134 µg/mL,0.0045 µg/mL,0.0529 µg/mL,0.0326 µg/mL,0.0343 µg/mL,0.0115 µg/mL,–,–,–,–,91.9,–,–
CC/C(=C(\c1ccc(O)cc1)c1ccc(OCCN(C)C)cc1)c1ccccc1 [4OH-TAM],–,–,–,–,–,–,–,–,0.0095 µg/mL,0.0036 µg/mL,0.0033 µg/mL,0.0002 µg/mL,–,116,–
CN(C)CCOc1ccc(/C(=C(/CCCl)c2ccccc2)c2ccc(O)cc2)cc1 [4OH-TOR],0.0164 µg/mL,0.0081 µg/mL,0.0069 µg/mL,0.0024 µg/mL,0.0312 µg/mL,0.016 µg/mL,0.0146 µg/mL,0.0055 µg/mL,–,–,–,–,98.0,–,–
"CC/C(=C(\c1ccccc1)c1ccc(OCCN(C)C)cc1)c1ccccc1 [TAM, tamoxifen]",–,–,–,–,–,–,–,–,0.552 µg/mL,0.1747 µg/mL,0.163 µg/mL,0.0385 µg/mL,–,1.0,"Hot flush grade 0 on TAM 20 mg, % of patients [3, 5]: 57.1%; Hot flush grade 0 on TAM 20 mg, patients [3, 5]: 8; Hot flush grade 1 on TAM 20 mg, % of patients [3, 5]: 28.6%; Hot flush grade 1 on TAM 20 mg, patients [3, 5]: 4; Hot flush grade 2 on TAM 20 mg, % of patients [3, 5]: 14.3%; Hot flush grade 2 on TAM 20 mg, patients [3, 5]: 2; Hot flush grade 0, % of patients ([3]; TAM 20 mg, screening study): 56.8%; Hot flush grade 1, % of patients ([3]; TAM 20 mg, screening study): 31.4%; Hot flush grade 1, patients ([3]; TAM 20 mg, screening study): 58; Hot flush grade 2, % of patients ([3]; TAM 20 mg, screening study): 11.4%; Hot flush grade 2, patients ([3]; TAM 20 mg, screening study): 21; Hot flush grade 3, % of patients ([3]; TAM 20 mg, screening study): 0.5%; Hot flush grade 3, patients ([3]; TAM 20 mg, screening study): 1"

# Continued, in another order:
"Plasma concentration, max ([2]; patients on TOR 40 mg, N=61)","Plasma concentration, mean ([2]; patients on TOR 40 mg, N=61)","Plasma concentration, median ([2]; patients on TOR 40 mg, N=61)","Plasma concentration, min ([2]; patients on TOR 40 mg, N=61)","Plasma concentration, max ([2]; patients on TOR 120 mg, N=27)","Plasma concentration, mean ([2]; patients on TOR 120 mg, N=27)","Plasma concentration, median ([2]; patients on TOR 120 mg, N=27)","Plasma concentration, min ([2]; patients on TOR 120 mg, N=27)","Plasma concentration, max [2, 4]","Plasma concentration, mean [2, 4]","Plasma concentration, median [2, 4]","Plasma concentration, min [2, 4]",Compound,In vitro activity factor in the total activity of TOR (TOR = 1.0) [1],In vitro activity factor in the total activity of TAM (TAM = 1.0) [1],further results
–,–,–,–,–,–,–,–,1.09 µg/mL,0.2832 µg/mL,0.271 µg/mL,0.0592 µg/mL,CC/C(=C(\c1ccccc1)c1ccc(OCCNC)cc1)c1ccccc1 [NDM-TAM],–,0.655,–
2.82 µg/mL,1.3737 µg/mL,1.35 µg/mL,0.601 µg/mL,5.43 µg/mL,3.5944 µg/mL,3.5 µg/mL,1.38 µg/mL,–,–,–,–,CNCCOc1ccc(/C(=C(/CCCl)c2ccccc2)c2ccccc2)cc1 [NDM-TOR],0.764,–,–
